{
  "source": "paper PMC10635799",
  "about": "“Analogs of FTY720 inhibit TRPM7 but not S1PRs and exert multimodal anti-inflammatory effects” (The Journal of General Physiology, 2023)",
  "key": {"[1]": {"tested_on": "S1P receptors", "conditions": "ref Brinkmann et al., 2002; Zhu et al., 2007; cited from earlier work"}, "[2]": {"target": "T1, mouse TRPM7 (Mus musculus, UniProt Q923J1)", "T1 construct": "expressed in transfected cells; host or cells: HEK 293T cells (CRL-3216; ATCC), transient transfection with jetOPTIMUS, co-transfected eGFP as a separate plasmid", "T1 sequence (Q923J1 whole entry)": "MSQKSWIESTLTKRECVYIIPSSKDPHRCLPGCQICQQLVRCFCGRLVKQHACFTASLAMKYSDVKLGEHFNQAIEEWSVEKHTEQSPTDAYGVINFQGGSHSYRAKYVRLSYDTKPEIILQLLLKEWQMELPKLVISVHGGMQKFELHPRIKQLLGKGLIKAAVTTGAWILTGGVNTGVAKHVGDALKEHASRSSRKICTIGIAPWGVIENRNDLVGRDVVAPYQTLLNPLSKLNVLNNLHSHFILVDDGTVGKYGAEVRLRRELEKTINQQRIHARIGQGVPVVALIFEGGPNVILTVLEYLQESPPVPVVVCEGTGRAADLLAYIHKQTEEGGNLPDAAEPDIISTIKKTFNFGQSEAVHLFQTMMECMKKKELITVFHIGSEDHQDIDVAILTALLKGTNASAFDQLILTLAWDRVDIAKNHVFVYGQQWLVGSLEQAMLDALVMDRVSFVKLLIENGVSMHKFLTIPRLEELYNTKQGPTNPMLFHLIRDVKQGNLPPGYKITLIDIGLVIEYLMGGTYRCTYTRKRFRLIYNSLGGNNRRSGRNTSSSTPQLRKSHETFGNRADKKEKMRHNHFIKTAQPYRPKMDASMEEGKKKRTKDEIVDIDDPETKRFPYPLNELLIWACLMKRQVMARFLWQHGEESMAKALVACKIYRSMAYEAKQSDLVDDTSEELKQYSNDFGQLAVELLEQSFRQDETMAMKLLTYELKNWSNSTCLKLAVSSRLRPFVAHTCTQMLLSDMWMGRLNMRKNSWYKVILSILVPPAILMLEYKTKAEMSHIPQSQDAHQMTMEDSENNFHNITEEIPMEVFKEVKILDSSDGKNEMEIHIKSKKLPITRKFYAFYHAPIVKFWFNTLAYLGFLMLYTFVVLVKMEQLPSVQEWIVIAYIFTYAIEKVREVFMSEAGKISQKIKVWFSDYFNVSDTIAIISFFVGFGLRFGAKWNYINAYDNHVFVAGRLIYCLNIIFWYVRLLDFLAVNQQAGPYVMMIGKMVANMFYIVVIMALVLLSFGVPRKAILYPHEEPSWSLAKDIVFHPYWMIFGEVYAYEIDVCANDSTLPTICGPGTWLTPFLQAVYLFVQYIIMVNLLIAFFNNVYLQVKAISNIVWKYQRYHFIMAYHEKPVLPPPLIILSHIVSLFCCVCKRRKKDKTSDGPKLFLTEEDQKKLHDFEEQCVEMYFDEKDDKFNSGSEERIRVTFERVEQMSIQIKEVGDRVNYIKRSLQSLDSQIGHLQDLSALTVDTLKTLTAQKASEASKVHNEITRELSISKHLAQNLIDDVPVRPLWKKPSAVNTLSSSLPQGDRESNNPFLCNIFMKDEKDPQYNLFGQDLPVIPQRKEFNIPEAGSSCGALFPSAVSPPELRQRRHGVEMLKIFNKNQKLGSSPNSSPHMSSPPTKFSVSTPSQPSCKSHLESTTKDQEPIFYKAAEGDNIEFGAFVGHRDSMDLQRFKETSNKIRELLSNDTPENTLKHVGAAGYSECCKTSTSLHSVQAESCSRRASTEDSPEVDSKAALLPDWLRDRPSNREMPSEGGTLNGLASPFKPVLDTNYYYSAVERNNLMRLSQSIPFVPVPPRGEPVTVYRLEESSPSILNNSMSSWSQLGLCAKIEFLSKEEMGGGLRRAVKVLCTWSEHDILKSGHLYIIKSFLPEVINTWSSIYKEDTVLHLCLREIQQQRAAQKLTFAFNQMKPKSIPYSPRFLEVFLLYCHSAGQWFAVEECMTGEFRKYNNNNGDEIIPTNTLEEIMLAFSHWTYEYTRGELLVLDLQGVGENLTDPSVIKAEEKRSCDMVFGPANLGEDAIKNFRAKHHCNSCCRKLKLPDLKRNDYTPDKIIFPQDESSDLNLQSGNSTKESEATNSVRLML", "experiment": "Whole-cell patch clamp of TRPM7 current (IM7) in HEK 293T cells overexpressing mouse TRPM7", "type": "cell-based", "protocol": "To overexpress TRPM7, HEK 293T cells were plated at a density of 500,000 cells per well (day 0), transfected at 80–90% confluency (day 1), and were patched 24–36 h after transfection (day 2). TRPM7 overexpression was performed using WT mouse TRPM7 (2.5 µg plasmid DNA; [Desai et al., 2012]) and jetOPTIMUS DNA Transfection Reagent (101000006; Polyplus). To enhance the selection rate of TRPM7-overexpressing cells, eGFP (#22152; Addgene) was included at a 1:10 dilution (0.25 µg) and only GFP-positive cells were patched.\nWhole-cell patch clamp electrophysiology was performed as described previously ([Schappe et al., 2022]). Briefly, the external solution contained (in mM) 140 Na-methanesulfonate, 5 Cs-gluconate, 2.5 CaCl2, and 10 HEPES, pH 7.4 (adjusted with NaOH), at an osmolality of 280–290 mOsm/kg. The internal pipette solution contained (in mM) 115 Cs-gluconate, 3 NaCl, 0.75 CaCl2, 10 HEPES, 10 HEDTA, 1.8 Cs4-BAPTA, and 2 Na2ATP, pH 7.3 (adjusted with CsOH), at an osmolality of 273 mOsm/kg. Intracellular free [Ca^2+] was estimated to be ∼100 nM using the online WEBMAXC standard calculator at https://somapp.ucdmc.ucdavis.edu/pharmacology/bers/maxchelator/webmaxc/webmaxcS.htm ([Bers et al., 2010]). Recordings were captured in pCLAMP 9 (Molecular Devices) using a 400-ms ramp protocol from −100 to +100 mV and a holding potential of 0 mV. Sampling was performed at 10 kHz with a 5 kHz low-pass band filter using an Axopatch 200B amplifier (Molecular Devices). All electrophysiology experiments were conducted at RT (∼23°C). […] Similarly, the minimum current for each inhibitor dose is taken as the stable minimum current observed after the drug has had time to exert an effect and after the flow-driven transient increase has subsided.\nData were analyzed using Microsoft Excel, Prism 9.5 (GraphPad Software), and Origin Pro 7.5 (OriginLab). Chemical structures were created using ChemDraw Professional 20.1.1 (PerkinElmer). Electrophysiology traces were plotted using Origin Pro 7.5, and the remaining data were plotted and statistically tested using Prism. Outliers were determined using the robust regression and outlier removal (ROUT) function within Prism. IC50 values were determined by plotting the percentage of maximum current observed as a function of applied drug concentration. A non-linear regression was fit using a standard Hill slope of −1.0 and the model: Y=100/[1+([Inhibitor]/IC50)]. Where appropriate, data are presented as individual values; otherwise the sample sizes and precision measures are indicated in the figure legends. P values of <0.05 were considered statistically significant."}, "[3]": {"tested_on": "BMDMs", "experiment": "LPS-induced inflammation assay in WT and TRPM7 KO BMDMs (qRT-PCR)", "type": "cell-based, mice", "protocol": "All cells were cultured at 37°C with 5% CO2. HEK 293T cells (CRL-3216; ATCC), HeLa cells (CCL-2; ATCC), RAW 264.7 macrophages (TIB-71; ATCC), and BV-2 microglial cells (ABC-TC212S; AcceGen Biotech) were cultured in DMEM (11995065; Gibco) with 10% fetal bovine serum (FBS; Avantor Seradigm Premium Grade Fetal Bovine Serum 97068-085). FBS was heat-inactivated prior to use at 56°C for 30 min. BMDMs were isolated and cultured as previously described ([Schappe et al., 2018]) and differentiated into mature macrophages over 7 d through culture in BMDM media (RPMI 1640, 10% FBS, and 20% L-929 culture supernatant; Gibco).\nRAW 264.7 macrophages or BMDMs were seeded at a density of 250,000 cells per well into a 12-well tissue culture plate in 1 ml of media and left to incubate overnight. The indicated drug or vehicle control was added to each well, and the plate was agitated and left to incubate for 10 min. The cells were then treated with LPS (1 µg/ml) or an equivalent volume of PBS, agitated, and left to incubate for 3 h. Cells were washed with PBS and then RNA isolation was performed using RNeasy Plus Micro Kit (74134; Qiagen). cDNA was produced using GoScript Reverse Transcriptase (A5004; Promega) and a quantitative PCR was performed using SensiFast SYBR (98020; Bioline) and Bio-Rad CFX Connect thermocycler. Each datum represents an individual, biological replicate that is the mean of duplicate technical replicates. Fold-changes are all reported relative to untreated controls for each experiment and were calculated using the ∆∆Ct method, with β2-microglobulin used as the housekeeping gene for each sample. The experiment was performed similarly with BV-2 microglia and alveolar macrophages, except that cells were plated at a density of 100,000 cells per well into a 24-well tissue culture plate with 1 ml of media per well."}, "[4]": {"tested_on": "HeLa cells", "experiment": "LDH-release cytotoxicity assay", "type": "cell-based", "conditions": "24 h", "protocol": "WT HeLa cells were plated at a density of 10,000 cells per well into a 96-well tissue culture microplate (3610; Costar). AAL-149, VPC01091.4, or vehicle at 0.1, 1, 5, 10, and 25 μM was added to cells with media for a final volume of 100 μl and incubated for 24 h. LDH release was quantified using a CyQUANT LDH Cytotoxicity Assay (C20300; Thermo Fisher Scientific) and a FlexStation 3 plate reader using SoftMax […] (Molecular Devices)."}},
  "note": "pIC50: −log10 of the molar value.",
  "data": [
    {"smiles": "CCCCCCCCc1ccc([C@@H]2CC[C@@](N)(CO)C2)cc1", "note": "[VPC01091.4, ((1S,3R)-1-amino-3-(4-octylphenyl)cyclopentyl)methanol]", "values": [
      {"measurement": "Activity at S1P receptors", "setting": "[1]", "result": "not active"},
      {"measurement": "Effect on whole-cell TRPM7 current (IM7)", "setting": "[2]; 5 µM", "result": "current inhibition"},
      {"measurement": "pIC50", "setting": "[2]; peak current at +100 mV, HEK 293T overexpressing mouse TRPM7, Hill slope -1.0, read-out: IC50 for inhibition of TRPM7 current (IM7)", "result": 6.18},
      {"measurement": "LPS-induced IL-1β expression in TRPM7 KO BMDMs", "setting": "[3]; 10 µM VPC4, 10 µM AAL-149, 5 µM FTY720, 30 μM NS8593", "result": "able to suppress"},
      {"measurement": "LPS-induced IL-6 expression in Trpm7 KO BMDMs", "setting": "[3]; 10 µM, effect on top of genetic deletion", "result": "additive effect"},
      {"measurement": "Cytotoxicity (LDH release)", "setting": "[4]; 25 μM, compared with positive control of 100% cytotoxicity", "result": 4, "unit": "%"},
      {"measurement": "Cytotoxicity (LDH release)", "setting": "[4]; dosages up to 10 µM", "result": "did not result in any significant cytotoxicity"},
      {"measurement": "Mean cytotoxicity (LDH release)", "setting": "[4]; each dose up to 25 µM", "result": "< 5", "unit": "%"}
    ]}
  ]
}
